Test results as given in patent publication US7449545B2, “Antimicrobial bolisin peptides” (IPF Pharmaceuticals GmbH, priority 2001, dated 2008).
Like-named read-outs stand apart in the source and are kept apart here. Ends that are not written are not given here.

How the values were obtained:
Assay type in all cases: cell-based
[1] = tested on: Candida albicans ATCC 10231; details: for peptide concentration giving 75% inhibition of growth (value in parentheses): Mueller Hinton Broth, complete growth inhibition not achieved; for minimum inhibition concentration: ATCC 10231, 2 h
Text: (§1) The bolisin analogues of the present invention were examined for their suitability as antibiotic therapeutical agents by means of various biological tests. Thus, the chemically synthesized peptides were examined for their antimicrobial effectiveness against three Gram-positive and three Gram-negative bacterial strains as well as against a yeast.
(§2) The following microorganisms were used: • Gram-positive: Staphylococcus aureus ATCC 25923 • Enterococcus faecalis ATCC 51299 (vancomycin-resistant) • Streptococcus pneumoniae DSM 11865 (penicillin-resistant) • Gram-negative: Escherichia coli ATCC 25922 • Pseudomonas aeruginosa ATCC 9027 • Klebsiella pneumoniae ATCC 10031 • Yeast: Candida albicans ATCC 10231
(§3) The antibiotic activity of bolisin analogues was examined by determining the minimum inhibition concentration. […] This method allows to obtain a quantitative result about the antimicrobial potency of the peptides. These examinations were performed by analogy with the recommendations (M7-A3) edited by the NCCLS (National Committee for Clinical Laboratory Standards) by applying a dilution test in a liquid medium using chemically synthesized peptides (peptide sequences according to claims 1 to 3). Mueller Hinton Broth was used as the test medium according to the NCCLS recommendations unless indicated otherwise. […] The minimum inhibition concentrations are stated in [μg/ml].
(§4) A complete growth inhibition could not be achieved in this case. For determining the minimum inhibition concentration, the following microorganisms were used: • 1. Staphylococcus aureus ATCC 25923 • 2. Enterococcus faecalis ATCC 51299 (vancomycin-resistant) • 3. Streptococcus pneumoniae DSM 11865 (penicillin-resistant) • 4. Escherichia coli ATCC 25922 • 5. Pseudomonas aeruginosa ATCC 9027 • 6. Klebsiella pneumoniae ATCC 10031 • 7. Candida albicans ATCC 10231

[2] = tested on: Enterococcus faecalis ATCC 51299 (vancomycin-resistant); details: ATCC 51299, 2 h
Text: as §1, §2, §3, §4

[3] = tested on: Escherichia coli ATCC 25922; details: ATCC 25922, 2 h
Text: as §1, §2, §3, §4

[4] = tested on: Klebsiella pneumoniae ATCC 10031; details: ATCC 10031, 2 h
Text: as §1, §2, §3, §4

[5] = tested on: Staphylococcus aureus ATCC 25923; details: ATCC 25923, 2 h
Text: as §1, §2, §3, §4

[6] = tested on: Streptococcus pneumoniae DSM 11865 (penicillin-resistant); details: DSM 11865, 2 h
Text: as §1, §2, §3, §4

[7] = tested on: Pseudomonas aeruginosa ATCC 9027; details: complete growth inhibition not achieved
Text: as §1, §2
The antibiotic activity of bolisin analogues was examined by determining the minimum inhibition concentration. The minimum inhibition concentration of an analogue designates the lowest peptide concentration which is required to inhibit the growth of microorganisms completely after an incubation time of 18±2 h. This method allows to obtain a quantitative result about the antimicrobial potency of the peptides. These examinations were performed by analogy with the recommendations (M7-A3) edited by the NCCLS (National Committee for Clinical Laboratory Standards) by applying a dilution test in a liquid medium using chemically synthesized peptides (peptide sequences according to claims 1 to 3). Mueller Hinton Broth was used as the test medium according to the NCCLS recommendations unless indicated otherwise. […] The minimum inhibition concentrations are stated in [μg/ml].
as §4

[8] = half-concentrated Mueller Hinton Broth

Substance	peptide concentration giving 75% inhibition of growth (value in parentheses) [1]	minimum inhibition concentration [2] [µg/mL]	minimum inhibition concentration [3] [µg/mL]	minimum inhibition concentration [4] [µg/mL]	minimum inhibition concentration [5] [µg/mL]	minimum inhibition concentration [6] [µg/mL]	peptide concentration giving 75% inhibition of growth (value in parentheses) ([7]; Mueller Hinton Broth)	minimum inhibition concentration [1] [µg/mL]	peptide concentration giving 75% inhibition of growth (value in parentheses) [7, 8]
YIVYKIRWAKKRWKALK-OH [BOL-60, YIVYKIRWAKKRWKALK]	(18.75) μg/ml	25	100	18.75	50	50	(18.75) μg/ml	–	–
YIVYKIRRAWKRSKALK-OH [BOL-53, YIVYKIRRAWKRSKALK]	(37.5) μg/ml	200	200	100	150	200	(75) μg/ml	–	–
YIVYKIRWARKRRK-OH [BOL-73, YIVYKIRWARKRRK]	–	25	50	18.75	37.5	18.75	(9.375) μg/ml	9.375	–
YIVYKIRSAWKRWKAL [BOL-67, YIVYKIRSAWKRWKAL]	–	100	25	37.5	25	100	(50) μg/ml	18.75	–
YIVYKRRSARKRRKALK-OH [BOL-15, YIVYKRRSARKRRKALK]	–	>300	18.75	75	18.75	>300	–	–	(150) μg/ml
KLAKRRKWAWRIKYVIY [BOL-103, KLAKRRKWAWRIKYVIY]	–	37.5	18.75	18.75	18.75	37.5	(9.4) μg/ml	–	–
YIVWKIRSADKRSKALK-OH [BOL-25, YIVWKIRSADKRSKALK]	–	>300	150	200	150	>300	–	–	(150) μg/ml
YIVYKIRFAFKRSKAL [BOL-91, YIVYKIRFAFKRSKAL]	–	37.5	25	18.75	25	37.5	(150) μg/ml	–	–
YIRYKIRSARKRRKALK-OH [BOL-14, YIRYKIRSARKRRKALK]	–	>300	37.5	75	50	>300	–	–	(150) μg/ml
YIVYKIRSARKRRKALK-OH [BOL-13, YIVYKIRSARKRRKALK]	–	75	18.75	18.75	18.75	150	–	–	(9.375) μg/ml
YIVYKRRSADKRRKALK-OH [BOL-12, YIVYKRRSADKRRKALK]	–	>300	18.75	200	18.75	>300	–	–	(300) μg/ml
YIVYKIRSADKRWKALK-OH [BOL-30, YIVYKIRSADKRWKALK]	–	>300	150	300	100	>300	–	–	(300) μg/ml
YIVYKRRSARKRSKALK-OH [BOL-11, YIVYKRRSARKRSKALK]	–	>300	37.5	150	37.5	>300	–	–	(150) μg/ml
YIVYKIRSADKRRKALK-OH [BOL-7, YIVYKIRSADKRRKALK]	–	>300	150	300	75	>300	–	–	(75) μg/ml
YIVYKIRWAWKRSKAL [BOL-93, YIVYKIRWAWKRSKAL]	–	37.5	25	25	25	25	(37.5) μg/ml	–	–
YIVYKIRWADKRSKALK-OH [BOL-27, YIVYKIRWADKRSKALK]	–	300	75	150	75	300	–	–	(150) μg/ml
YIVYKIRSARKRSKALK-OH [BOL-6, YIVYKIRSARKRSKALK]	–	200	37.5	37.5	37.5	150	–	–	(9.375) μg/ml
YIVYKIRSAWKRSKALK-OH [BOL-29, YIVYKIRSAWKRSKALK]	–	75	9.375	50	9.375	150	–	–	(18.75) μg/ml
YIVYKIRFAFKRRKAL [BOL-92, YIVYKIRFAFKRRKAL]	–	18.75	18.75	12.5	18.75	25	(37.5) μg/ml	–	–
YIVYKIRSAPKRSKALK-OH [BOL-21, YIVYKIRSAPKRSKALK]	–	>300	150	200	75	>300	–	–	(150) μg/ml
YIVYKIRWTWKRSKAL [BOL-97, YIVYKIRWTWKRSKAL]	–	18.75	18.75	18.75	12.5	18.75	(37.5) μg/ml	–	–
YIRYKRRSADKRRKALK-OH [BOL-16, YIRYKRRSADKRRKALK]	–	>300	75	150	100	>300	–	–	(300) μg/ml
